Literature values, collected in PubChem BioAssay AID1259409 (Chemical Carcinogenesis Research Information System (CCRIS), 2018).
“And” between values parts separate entries of the source, which are not always exact repeats. Equal values may be shown once.

Tested on: rodent chemically induced tumor inhibition, incidence and multiplicity
Experiment: CCRIS tumor inhibitor studies

Row | SMILES | tumour outcome (control, treated, inhibition, significance) (Carcinogen: 1,2-DIMETHYLHYDRAZINE, 540-73-8, Dose [Inhibitor]: 0, 0.2, 5 PPM IN DIET BEGINNING 1 D PRIOR TO CARCINOGEN TREATMENT AND CONTINUING FOR DURATION OF STUDY (STUDY DURATION:, Dose [Inhibitor]: 0, 0.2, 5 PPM IN DIET BEGINNING 1 D PRIOR TO CARCINOGEN TREATMENT AND CONTINUING FOR DURATION OF STUDY (STUDY DURATION:, Route [Inhibitor]: ORAL, Species: RAT, Strain/Sex: SPRAGUE-DAWLEY/MALE, Target Tissue: Type of Lesion: DISTAL COLON: ADENOCARCINOMA, Dose [Carcinogen]: 20 MG/KG 1/WK FOR 20 WK, Promoter: NONE USED) | tumour outcome (control, treated, inhibition, significance) (Carcinogen: 3,2'-DIMETHYL-4-AMINOBIPHENYL, 13394-86-0, Dose [Inhibitor]: 0, 2 PPM IN BASAL DIET BEGINNING POST CARCINOGEN TREATMENT AND CONTINUING FOR 40 WK (STUDY DURATION: 60 WK), Route [Inhibitor]: ORAL, Species: RAT, Strain/Sex: F344/MALE, Target Tissue: Type of Lesion: LARGE INTESTINE: ADENOMA AND CARCINOMA, Dose [Carcinogen]: 50 MG/KG 1/2 WK FOR 20 WK TO RATS MAINTAINED ON ETHINYL ESTRADIOL CONTAINING DIET (0.75 PPM) FOR 1 WK CYCLED WITH ETHINY, Promoter: ETHINYL ESTRADIOL, 57-63-6) | tumour outcome (control, treated, inhibition, significance) (Carcinogen: 3,2'-DIMETHYL-4-AMINOBIPHENYL, 13394-86-0, Dose [Inhibitor]: 0, 2 PPM IN BASAL DIET BEGINNING POST CARCINOGEN TREATMENT AND CONTINUING FOR 40 WK (STUDY DURATION: 60 WK), Route [Inhibitor]: ORAL, Species: RAT, Strain/Sex: F344/MALE, Target Tissue: Type of Lesion: PANCREAS: ACINAR CELL NODULE, Dose [Carcinogen]: 50 MG/KG 1/2 WK FOR 20 WK TO RATS MAINTAINED ON ETHINYL ESTRADIOL CONTAINING DIET (0.75 PPM) FOR 1 WK CYCLED WITH ETHINY, Promoter: ETHINYL ESTRADIOL, 57-63-6) | tumour outcome (control, treated, inhibition, significance) (Carcinogen: 3,2'-DIMETHYL-4-AMINOBIPHENYL, 13394-86-0, Dose [Inhibitor]: 0, 2 PPM IN BASAL DIET BEGINNING POST CARCINOGEN TREATMENT AND CONTINUING FOR 40 WK (STUDY DURATION: 60 WK), Route [Inhibitor]: ORAL, Species: RAT, Strain/Sex: F344/MALE, Target Tissue: Type of Lesion: PREPUTIAL GLAND: ADENOMA AND CARCINOMA, Dose [Carcinogen]: 50 MG/KG 1/2 WK FOR 20 WK TO RATS MAINTAINED ON ETHINYL ESTRADIOL CONTAINING DIET (0.75 PPM) FOR 1 WK CYCLED WITH ETHINY, Promoter: ETHINYL ESTRADIOL, 57-63-6) | tumour outcome (control, treated, inhibition, significance) (Carcinogen: 3,2'-DIMETHYL-4-AMINOBIPHENYL, 13394-86-0, Dose [Inhibitor]: 0, 2 PPM IN BASAL DIET BEGINNING POST CARCINOGEN TREATMENT AND CONTINUING FOR 40 WK (STUDY DURATION: 60 WK), Route [Inhibitor]: ORAL, Species: RAT, Strain/Sex: F344/MALE, Target Tissue: Type of Lesion: SMALL INTESTINE: ADENOMA AND ADENOCARCINOMA, Dose [Carcinogen]: 50 MG/KG 1/2 WK FOR 20 WK TO RATS MAINTAINED ON ETHINYL ESTRADIOL CONTAINING DIET (0.75 PPM) FOR 1 WK CYCLED WITH ETHINY, Promoter: ETHINYL ESTRADIOL, 57-63-6) | tumour outcome (control, treated, inhibition, significance) (Carcinogen: 3,2'-DIMETHYL-4-AMINOBIPHENYL, 13394-86-0, Dose [Inhibitor]: 0, 2 PPM IN BASAL DIET BEGINNING POST CARCINOGEN TREATMENT AND CONTINUING FOR 40 WK (STUDY DURATION: 60 WK), Route [Inhibitor]: ORAL, Species: RAT, Strain/Sex: F344/MALE, Target Tissue: Type of Lesion: SUBCUTIS: TUMOR, Dose [Carcinogen]: 50 MG/KG 1/2 WK FOR 20 WK TO RATS MAINTAINED ON ETHINYL ESTRADIOL CONTAINING DIET (0.75 PPM) FOR 1 WK CYCLED WITH ETHINY, Promoter: ETHINYL ESTRADIOL, 57-63-6) | tumour outcome (control, treated, inhibition, significance) (Carcinogen: 3,2'-DIMETHYL-4-AMINOBIPHENYL, 13394-86-0, Dose [Inhibitor]: 0, 2 PPM IN BASAL DIET BEGINNING POST CARCINOGEN TREATMENT AND CONTINUING FOR 40 WK (STUDY DURATION: 60 WK), Route [Inhibitor]: ORAL, Species: RAT, Strain/Sex: F344/MALE, Target Tissue: Type of Lesion: ZYMBAL GLAND: ADENOMA AND CARCINOMA, Dose [Carcinogen]: 50 MG/KG 1/2 WK FOR 20 WK TO RATS MAINTAINED ON ETHINYL ESTRADIOL CONTAINING DIET (0.75 PPM) FOR 1 WK CYCLED WITH ETHINY, Promoter: ETHINYL ESTRADIOL, 57-63-6) | tumour outcome (control, treated, inhibition, significance) (Carcinogen: 3,2-DIMETHYL-4-AMINOBIPHENYL, 13394-86-0, Dose [Inhibitor]: 0, 2 PPM IN BASAL DIET BEGINNING POST CARCINOGEN TREATMENT AND CONTINUING FOR 40 WK (STUDY DURATION: 60 WK), Route [Inhibitor]: ORAL, Species: RAT, Strain/Sex: F344/MALE, Target Tissue: Type of Lesion: PROSTATE: CARCINOMA, Dose [Carcinogen]: 50 MG/KG 1/2 WK FOR 20 WK TO RATS MAINTAINED ON ETHINYL ESTRADIOL CONTAINING DIET (0.75 PPM) FOR 1 WK CYCLED WITH ETHINY, Promoter: ETHINYL ESTRADIOL, 57-63-6) | tumour outcome (control, treated, inhibition, significance) (Carcinogen: DINITROSOPIPERAZINE, 140-79-4, Dose [Inhibitor]: 0, 2 UG/G DIET IN YEAST CONCURRENTLY WITH CARCINOGEN AND CONTINUED FOR STUDY DURATION (STUDY DURATION: 13.5 MO), Route [Inhibitor]: ORAL, Species: RAT, Strain/Sex: CD-1/MALE, FEMALE, Target Tissue: Type of Lesion: NASAL PHARYNX: CARCINOMA, Dose [Carcinogen]: 1.5 MG IN WATER 2/WK FOR 5 WK FOLLOWED BY 3 MG IN WATER 2/WK FOR 17.5 WK (TOTAL DOSE: 120 MG)) | tumour outcome (control, treated, inhibition, significance) (Carcinogen: NONE USED, Dose [Inhibitor]: 0.5 PPM IN DRINKING WATER DAILY FOR DURATION OF STUDY (STUDY DURATION: 2 YR), Route [Inhibitor]: ORAL, Species: MOUSE, Strain/Sex: C3H/FEMALE, Target Tissue: Type of Lesion: MAMMARY GLAND: ADENOCARCINOMA, Promoter: NONE USED) | tumour outcome (control, treated, inhibition, significance) (Carcinogen: NONE USED, Dose [Inhibitor]: 2 PPM IN A 10% BUTTER DIET DAILY FOR DURATION OF STUDY (STUDY DURATION: 2 YR), Route [Inhibitor]: ORAL, Species: MOUSE, Strain/Sex: C3H/FEMALE, Target Tissue: Type of Lesion: MAMMARY GLAND: ADENOCARCINOMA, Promoter: NONE USED) | tumour outcome (control, treated, inhibition, significance) (Carcinogen: NONE USED, Dose [Inhibitor]: 2 PPM IN A 10% CORN OIL DIET DAILY FOR DURATION OF STUDY (STUDY DURATION: 2 Y R), Route [Inhibitor]: ORAL, Species: MOUSE, Strain/Sex: C3H/FEMALE, Target Tissue: Type of Lesion: MAMMARY GLAND: ADENOCARCINOMA, Promoter: NONE USED) | tumour outcome (control, treated, inhibition, significance) (Carcinogen: NONE USED, Dose [Inhibitor]: 2 PPM IN A 10% LARD DIET DAILY FOR DURATION OF STUDY (STUDY DURATION: 2 YR), Route [Inhibitor]: ORAL, Species: MOUSE, Strain/Sex: C3H/FEMALE, Target Tissue: Type of Lesion: MAMMARY GLAND: ADENOCARCINOMA, Promoter: NONE USED) | tumour outcome (control, treated, inhibition, significance) (Carcinogen: NONE USED, Dose [Inhibitor]: 2 PPM IN A 10% RAPE SEED OIL DIET DAILY FOR DURATION OF STUDY (STUDY DURATION : 2 YR), Route [Inhibitor]: ORAL, Species: MOUSE, Strain/Sex: C3H/FEMALE, Target Tissue: Type of Lesion: MAMMARY GLAND: ADENOCARCINOMA, Promoter: NONE USED) | tumour outcome (control, treated, inhibition, significance) (Carcinogen: NONE USED, Dose [Inhibitor]: 2 PPM IN DRINKING WATER DAILY FOR DURATION OF STUDY (STUDY DURATION: 2 YR), Route [Inhibitor]: ORAL, Species: MOUSE, Strain/Sex: C3H/FEMALE, Target Tissue: Type of Lesion: MAMMARY GLAND: ADENOCARCINOMA, Promoter: NONE USED) | tumour outcome (control, treated, inhibition, significance) (Carcinogen: CISPLATIN, 15663-27-1, Dose [Inhibitor]: 0, 40 UMOL/KG/D 3 D/WK FOR 8 WK ADMINISTERED 24 HR PRIOR TO EACH CARCINOGEN DOSE (STUDY DURATION: 24 WK), Route [Inhibitor]: SUBCUTANEOUS, Species: MOUSE, Strain/Sex: STRAIN-A/FEMALE, Target Tissue: Type of Lesion: LUNG: TUMOR, Dose [Carcinogen]: 2 UMOL/KG/D 3 D/WK FOR 8 WK, Promoter: NONE USED) | tumour outcome (control, treated, inhibition, significance) (Carcinogen: MELPHALAN, 148-82-3, Dose [Inhibitor]: 0, 40 UMOL/KG/D 3 D/WK FOR 8 WK ADMINISTERED 24 HR PRIOR TO EACH CARCINOGEN DOSE (STUDY DURATION: 24 WK), Route [Inhibitor]: SUBCUTANEOUS, Species: MOUSE, Strain/Sex: STRAIN-A/FEMALE, Target Tissue: Type of Lesion: LUNG: TUMOR, Dose [Carcinogen]: 4 UMOL/KG/D 3 D/WK FOR 8 WK, Promoter: NONE USED)
1 | [Se] | 94%, 81%, 14%, not significant | 3/10 (30%), 0/11 (0%), 100%, not significant | 4/10 (40%), 4/11 (36%), 10%, not significant | 5/10 (50%), 6/11 (55%), -10%, not significant | 2/10 (20%), 2/11 (18%), 10%, not significant | 1/10 (10%), 0/11 (0%), 100%, not significant | 2/10 (20%), 2/11 (18%), 10%, not significant | 5/10 (50%), 4/11 (36%), 28%, not significant | 5/31(16%), 1/22(5%), 69%, p 0.025 | 64%, 25%, 61%, p<0.01 | 65%, 72%, -11%, not significant | 70%, 72%, -3%, not significant | 53%, 52%, 2%, not significant | 63%, 65%, -3%, not significant | 44%, 40%, 9%, not calculated and 64%, 25%, 61%, p<0.01 |  | 
2 | [Cl][Zn][Cl] |  |  |  |  |  |  |  |  |  |  |  |  |  |  |  | 100%, 69%, 31%, p<0.05 | 100%, 100%, 0%, not significant
